The text below walks through data of patent publication US11406721B2, “Compositions and methods for imaging cell populations” (The Regents of the University of California, priority 2016, dated 2022).

Holding throughout (type): physicochemical
Series [1] in a line: Kinetic measurements of metal uptake into emulsion (UV-Vis). Conditions: emulsion from example 4. The protocol:
FIG. 15. Time course of metalation of FETRIS nanoemulsion with Fe^3+. Shown is the metalation of emulsion B (70 μM pAn-FDK and 10 μM Fe^3+, 8 mM HCl, pH 2.1). A single exponential fit yields kobs=0.69±0.10 min^−1
Strong absorbance of aromatic diketone and its complexes permits facile kinetic investigation of metalation rates. In atypical measurement, emulsion from example 4 was diluted to 70 uM diketone (excess ligand, modeling radiolabeling conditions) into a solution of chosen pH and treated with 10 uM metal cations of relevance to medical imaging, including Fe^3+ (MRI), Cu^2+ (PET), Ga^3+ (PET, SPECT), Sc^3+ (PET), and In^3+ (SPECT). In all cases, UV-Vis spectral changes indicative of metal uptake into the fluorous phase were detected, proportional in magnitude to the amount of metal. For some metals, kinetic analysis was performed. The reaction time course fit well to a pseudo-first-order process with rate constant kobs (Table 4).

The nature of series [2]: 19F relaxometry of organic solutions containing paramagnetic dpm complexes. As to conditions: 50 mM complexes in 1:1 v/v PhCF3:acetone-d6, 9.4 T. The procedure:
FIG. 10. ^19F relaxometry of organic solutions containing paramagnetic complexes. Relaxation rates of the CF3 group were measured in the presence of 50 mM tris-(dipivaloylmethanato) complexes Fe(dpm)3 (left) and Gd(dpm)3 (right) in 1:1 v/v PhCF3:acetone-d6 at 9.4 T in a sealed 5 mm NMR tubes. […] Solid lines are guide for the eye. While monomeric Fe(dpm)3 was highly soluble in PhCF3 alone, polymeric Gd(dpm)3 dissolved only in the presence of Lewis basic solvent acetone-d6. […] The observed ratio between R1(Gd) and R1(Fe) was 1.72-1.77, consistent with the expected 1.8-fold difference due to the S(S+1) term in Eq. S, curtailed by a slight increase in the distance of minimal approach due to the larger size of Gd.
To highlight the critical effect of viscosity on relaxation rates, we measured PRE caused by different metal ions in non-viscous organic solutions containing trifluorotoluene (PhCF3) and iron or gadolinium chelates of dipivaloylmethane, Fe(dpm)3 and Gd(dpm)3. Under these conditions, gadolinium provided higher R1 than iron, as expected from the greater spin of Gd^3+. […] In contrast, the divergent temperature dependence of R1 and R2 in FETRIS nanoemulsion (FIG. 3D) is indicative of slow molecular motion in the fluorous phase.

Series [3] is described as follows: Small fluorinated diketones: relaxation enhancement and stability under EDTA competition and cell labeling. Conditions: metalated small fluorinated diketones. The text has this:
It may be necessary for sufficient stability to use fluorinated diketones with heavily fluorinated substituents that are well-miscible with other fluorinated agents known in the art to be useful for ^19F MRI.

The nature of series [4]: 19F relaxometry of PFPE nanoemulsion doped with H-fod and metal chloride. As to conditions: 9.4 T. The source says: FIG. 1. Comparison of iron and gadolinium diketonates (H-fod) as ^19F relaxation agents for PFPE. […] R1 and R2 values are reported for the main PFPE peak at −91.4 ppm.
FIG. 11. ^19F relaxometry of PFPE with metalated small diketones. PFPE nanoemulsion was doped in the fluorous phase with small fluorinated diketones H-fod and H-hfp. […] The left panels display broad ^19F NMR signals of CF2 groups of H-fod and H-hfp observed in the absence of metals indicating poor solubility of the ligands in the fluorous phase. […] The right panel show the time course of metalation of PFPE+H-fod nanoemulsion measured by ^19F relaxometry. R1 and R2 were measured for main PFPE peak at −91 ppm at different time points. The solid lines are guides for the eye. The appearance of orange color of Fe(fod)3 correlated with an increase in relaxation rates. Metalation of PFPE emulsions doped with H-fod with Fe^3+ was several orders of magnitude slower than metalation of emulsions containing pAn-FDK (FIG. 15).
Initially, the results of the PRE modeling [Example 2 and FIG. 9] using small molecules were tested. Fluorinated β-diketone H-fod (FIG. 1) was chosen as starting point. […] Addition of 0.7 mM FeCl3 led to the slow formation of orange-colored Fe(fod)3 and a commensurate increase in R1 from 2.3 to 27.0 s^−1 and in R2 from 4.0 to 85.6 s^−1 (at 9.4 T) of the major PFPE resonance (−91.4 ppm) by 24 hours (FIG. 11). With GdCl3, lower R1 (12.8 s^−1) and higher R2 (285 s^−1) values were obtained.

[5] abbreviates: final [M^3+] 10 uM, [ligand] 70 uM, pH 2.1 (8 mM HCl).

Take `[Cl][Fe]([Cl])[Cl]` [FeCl3]: the kobs was determined as 0.79 min⁻¹ in series [1] (final [M^3+] 5 uM, [ligand] 70 uM, pH 2.1 (8 mM HCl)) and 0.70 min⁻¹ in series [1] (setting [5]).
In series [1] (setting [5]), `[Cl][Ga]([Cl])[Cl]` [GaCl3] came in with a kobs of 0.043 min⁻¹.
`CC(C)(C)C(=O)C=C(O)C(C)(C)C.CC(C)(C)C(=O)C=C(O)C(C)(C)C.CC(C)(C)C(=O)C=C(O)C(C)(C)C.[Gd]` [Gd(dpm)3]: in series [2], the “ratio between R1(Gd) and R1(Fe)” value was 1.72-1.77.
On to `O=C(/C=C(\O)c1ccccc1)C(F)F` [H-bda], for which, in series [3], the enhancing relaxation result is given as “highly effective”; the “stability under the conditions of EDTA competition and cell labeling” value (“stability under the conditions” for short) is listed as “not stable enough”.
Taken in the same sequence, the figures for `O=C(CC(=O)C(F)(F)F)c1ccccc1` [H-bta] were “highly effective” and “not stable enough”.
Turning to `CC(C)(C)/C(O)=C/C(=O)C(F)(F)C(F)(F)C(F)(F)F` [H-fod], in series [4] (PFPE nanoemulsion + 2.8 mM H-fod + 0.7 mM FeCl3, by 24 hours), the “R1 of major PFPE resonance (−91.4 ppm)” value was 27.0 s⁻¹. In addition, the “R1 of major PFPE resonance” value in series [4] (PFPE nanoemulsion + 2.8 mM H-fod with GdCl3) came to 12.8 s⁻¹. Moreover, the “R1 of major PFPE resonance (−91.4 ppm)” value in series [4] (PFPE nanoemulsion + 2.8 mM H-fod, before metal addition) is 2.3 s⁻¹. In series [3], the enhancing relaxation entry is “highly effective”; the “stability under the conditions” value is “not stable enough”.
For `C/C(O)=C/C(=O)C(F)(F)C(F)(F)C(F)(F)F` [H-hhd], in series [3], the enhancing relaxation entry is on record as “highly effective”; the “stability under the conditions” value is “not stable enough”.
Taken in the same sequence, the figures for `C/C(O)=C/C(=O)C(F)(F)C(F)(F)C(F)(F)C(F)(F)C(F)(F)C(F)(F)F` [H-tdd] were “highly effective” and “not stable enough”.
For the compound `O=C(CC(=O)C(F)(F)F)c1cccs1` [H-tta], in series [3], the enhancing relaxation result is on record as “highly effective”; the “stability under the conditions” value is reported as “not stable enough”.
As for `[Cl-].[Cl-].[Cl-].[In+3]` [InCl3], the kobs in series [1] (final [M^3+] 2 uM, [ligand] 14 uM, pH ~5 (unbuffered H2O)) was >10 min⁻¹; in series [1] (final [M^3+] 10 uM, [ligand] 70 uM, pH 7.4 HEPES) it was 0.0322 min⁻¹.
